Several values for one entry are separate records, joined by “and”; a condition that tells them apart may be missing. Identical values can stand only once.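 1) Cells in 96-well plates. 2) Compound, 48 h, 5 concentrations. 3) Linear interpolation between surrounding doses. 4) Unreached endpoint = highest concentration. The concentration for 50% growth inhibition is given as GI50. The concentration for full growth arrest is given as TGI.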
Legend:
Experiment in all cases: DTP human tumour cell line panel, 48 h
NCI-H460 lung = tested on: NCI-H460 lung
U251 CNS = tested on: U251 CNS
SN12C renal = tested on: SN12C renal
KM12 colon = tested on: KM12 colon
HT29 colon = tested on: HT29 colon
BT-549 breast = tested on: BT-549 breast
MOLT-4 leukemia = tested on: MOLT-4 leukemia
HCT-15 colon = tested on: HCT-15 colon
UACC-257 melanoma = tested on: UACC-257 melanoma
A549 NSCLC = tested on: A549 NSCLC

| SMILES | GI50 (NCI-H460 lung) [µM] | TGI (NCI-H460 lung) [µM] | GI50 (U251 CNS) [µM] | TGI (U251 CNS) | GI50 (SN12C renal) [µM] | TGI (SN12C renal) [µM] | GI50 (KM12 colon) [µM] | TGI (KM12 colon) [µM] | GI50 (HT29 colon) [µM] | TGI (HT29 colon) [µM] | GI50 (BT-549 breast) [µM] | TGI (BT-549 breast) [µM] | GI50 (MOLT-4 leukemia) [µM] | TGI (MOLT-4 leukemia) [µM] | GI50 (HCT-15 colon) [µM] | TGI (HCT-15 colon) [µM] | GI50 (UACC-257 melanoma) [µM] | TGI (UACC-257 melanoma) [µM] | GI50 (A549 NSCLC) [µM] | TGI (A549 NSCLC) [µM] |
| --- | --- | --- | --- | --- | --- | --- | --- | --- | --- | --- | --- | --- | --- | --- | --- | --- | --- | --- | --- | --- |
| Cc1sc2nc(-c3ccncc3)c(/C=N/N=C(N)N)n2c1C | 27.3 | > 100 | 30.5 | > 100 µM | 16.9 | 51.6 | 14.7 | 37.2 | 40 | > 100 | 73.5 | > 100 | 18.2 | > 100 | > 100 | > 100 |  |  |  |  |
| CCOc1ccc2nc(SCc3nc4n(n3)S(=O)(=O)c3ccccc3N4C)sc2c1 | > 100 | > 100 | 68.5 | > 100 µM | > 100 | > 100 |  |  | > 100 | > 100 | 59.3 | > 100 | > 100 | > 100 | > 100 | > 100 | > 100 | > 100 | > 100 | > 100 |
| Cc1ccc(-c2csc(/N=C3\C(=O)Nc4ccccc43)n2)cc1 | 1.76 | 3.74 | 1.46 | 3.05 µM |  |  | 1.86 | 4.51 | 1.6 | 4.83 | 1.49 | 3.06 |  |  | 2.37 | 10.4 |  |  | 2.98 | 11.3 |
| O=C(O)CCCCCCC[C@H]1S[C@H]1CCCCCCO |  |  |  | > 100 µM |  |  |  | > 100 |  | > 100 |  |  |  | > 100 |  | > 100 |  |  |  |  |
| COC(=O)N(C(=O)OC)C(C(=O)O)C(C)C (configuration not stated) |  | > 100 |  | > 100 µM |  | > 100 |  | > 100 |  | > 100 |  |  |  |  |  |  |  | > 100 |  | > 100 |
| Cc1ccc(C)c2c1C(O)(C#Cc1ccccc1)c1ccccc1C2(O)C#Cc1ccccc1 (configuration not stated) | 2.38 | 12 | 2.76 | > 100 µM | 3.04 | 89.2 | 2.93 | 27.1 | 2.96 | > 100 |  |  | 2.5 | > 23.3 | 1.03 | > 100 | 2.54 | 6.6 | 3.12 | > 100 |
| COc1ccc(Nc2nc3ccc(C(F)(F)F)cc3nc2-c2ccccc2)cc1OC |  | 37.1 |  | > 100 µM |  | > 100 |  | > 100 |  | 22.6 |  |  |  | > 100 |  | > 100 |  | > 100 |  | > 100 |
| C=C(COC(C)=O)CC(OC(C)=O)c1ccccc1 (configuration not stated) |  | > 100 |  | > 100 µM |  | > 100 |  | > 100 |  | > 100 |  |  |  | > 100 |  | > 100 |  |  |  | > 100 |
| Cc1ccc(SC(CCC(Sc2ccc(C)cc2)Sc2ccc(C)cc2)Sc2ccc(C)cc2)cc1 |  | > 100 |  | > 100 µM |  | > 100 |  | > 100 |  |  |  |  |  | > 100 |  | > 100 |  | > 100 |  | > 100 |
| COc1cccc(-c2cc(=O)c3cc(OC)ccc3[nH]2)c1 | 0.0823 | > 100 | 0.057 | 3.36 µM and 13.2 µM | 0.398 | 47.7 | 0.0671 | > 100 |  | 1.42 |  |  | 0.0411 |  | 0.0485 |  | 0.0325 | > 100 | 0.305 | > 100 |
| O=C1Nc2ccccc2C12CCNC2Cc1ccccc1 (configuration not stated) |  | > 100 |  | > 100 µM |  |  |  | > 100 |  | > 100 |  |  |  | > 100 |  | > 100 |  | > 100 |  | > 100 |
| COc1ccc(-c2cn[nH]c2-c2cc(OC)c3c(c2)OCO3)cc1 | 0.335 | 11.3 | 0.321 | 10.7 µM | 1.1 | 27.7 | 0.0929 | 11.1 | 0.102 | 12.1 | 2.26 | 25.8 | 0.541 | 15.1 | 0.0794 | 14.4 |  |  | 0.3 | 20.1 |
| COc1cc(NC(N)=NCCC(C)(C)Oc2ccc(C(F)(F)F)cc2)ncc1C#N | 1.72 | 3.39 | 1.79 | 3.22 µM | 1.85 | 3.35 | 1.68 | 3.17 | 1.64 | 3.03 | 1.81 | 3.38 |  |  | 1.65 | 3.07 | 1.7 | 3.11 | 1.73 | 3.18 |
| CCC12CCCN(Cc3ccccc3)C1c1c([nH]c3ccccc13)C(C(=O)OC)C2 (configuration not stated) |  |  |  | > 10 µM |  | > 10 |  | > 10 |  | > 10 |  | > 10 |  | > 10 |  | > 10 |  | > 10 |  | > 10 |
| CC1CCC2(CC1)NN=c1s/c(=C\c3ccc(O)cc3)c(=O)n1N2 (configuration not stated) |  | > 100 |  | > 100 µM |  | > 100 |  | > 100 |  | > 100 |  |  |  | > 100 |  |  |  |  |  | > 100 |
| CC(C)CC(NC(=O)c1cccc(O)c1O)C(=O)NCc1cc(CNC(=O)C(CC(C)C)NC(=O)c2cccc(O)c2O)cc(CNC(=O)C(CC(C)C)NC(=O)c2cccc(O)c2O)c1 (configuration not stated) |  | > 100 |  | 29.5 µM |  | 56.3 |  | 41.9 |  | 30.9 |  |  |  | 37.9 |  | > 100 |  | 58.9 |  | 50.3 |
| CCCCCC[N+](C)(C)Cc1ccc(C[N+](C)(C)CCCCCC)cc1 |  | 6.03 |  | 7.28 µM |  | 12.7 |  |  |  | 16 |  |  |  |  |  | 23.7 |  | 35.5 |  | 12.8 |
| CC(C)=CC(=O)C/C(=N\NC(N)=S)C(=O)Nc1ccc(Cl)cc1 |  | > 100 |  | > 100 µM |  | > 100 |  | > 100 |  | > 100 |  |  |  | > 100 |  | > 100 |  | > 100 |  | > 100 |
| Clc1ccc(SC(/C=C/NNC2=NC(c3ccccc3)C(c3ccccc3)=NN2)c2ccccc2)cc1 (configuration not stated) |  | > 100 |  | > 100 µM |  | > 100 |  | 67.2 |  | 39.3 |  |  |  | 38.4 |  | > 100 |  | 55.2 |  | > 100 |
